Reference: ChEMBL document CHEMBL2390946, “Discovery of TAK-960: an orally available small molecule inhibitor of polo-like kinase 1 (PLK1)” (Bioorg Med Chem Lett, 2013)

Experiments:
Format in all cases: ADME, organism-based
[1] = Volume of distribution at steady state in rat at 1 mg/kg, iv and 5 mg/kg, po; details: in vivo, read-out: Vdss
[2] = Half life in rat at 1 mg/kg, iv and 5 mg/kg, po; details: in vivo
[3] = Oral bioavailability in rat at 5 mg/kg; details: in vivo
[4] = Clearance in rat at 1 mg/kg, iv and 5 mg/kg, po; details: in vivo

Vd [1] [L/kg]	half-life [2] [h]	bioavailability [3] [%]	clearance [4] [mL/min/kg]	Structure (SMILES)
13.7	5.4	54	42	COc1cc(C(=O)NC2CCN(C)CC2)c(F)cc1Nc1ncc2c(n1)N(C1CCCC1)CC(F)(F)C(=O)N2C [TAK-960]
19.6	3.3	11	51	COc1cc(C(=O)NC2CCN(C)CC2)ccc1Nc1ncc2c(n1)N(C1CCCC1)CC(F)(F)C(=O)N2C
